The text below walks through data of ChEMBL document CHEMBL1138928, “Toward orthopoxvirus countermeasures: a novel heteromorphic nucleoside of unusual structure” (J Med Chem, 2006).

The test has as its system Vaccinia virus. In words: Antiviral activity against vaccinia virus in HFF cells by cytopathogenic effect assay. Type of test: functional, organism-based. As to conditions: Orthopoxvirus vaccinia.

As to `N#CC1=C(N)OC2=C(C(=O)CCC2)C1c1cn([C@H]2C[C@@H](O)[C@@H](CO)O2)c(=O)[nH]c1=O` (some centres not stated), it took 600 nM to reach a half-maximal effect (EC50).
With `Nc1ccn(C[C@@H](CO)OCP(=O)(O)O)c(=O)n1` [CIDOFOVIR], a half-maximal response (EC50) required 3200 nM.
